Data published in patent publication US4246340A, “Method and reagent for bioluminiscence” (LKB-Producter AB, priority 1979, dated 1981).

Key:
luciferase [1] = target: T1, luciferase (Photinus pyralis, UniProt P08659); conditions: inhibition of luciferase; literature value; cited from earlier work
luciferase [2] = target: T1, luciferase; test: Inhibition of the luciferase reaction (literature Ki values); assay type: biochemical; conditions: if 10^-6 M ATP generated 10^-6 M AMP; estimated from Ki; 1 µM
Text: To the extent free AMP and free oxluciferin are formed in the reaction it could also be of interest to study whether this would affect the product inhibition. […] Consequently it may under certain conditions be important to counteract the effect of the generation of free oxyluciferin. The addition of D-luciferin analog makes the initial inhibition of the luciferase so big that the additional inhibition from the oxyluciferin, which is continuously formed during the reaction, will be negligible. The addition of inhibiting concentrations of a D-luciferin analog will thus stabilize the light level.

T1 sequence (P08659 whole entry): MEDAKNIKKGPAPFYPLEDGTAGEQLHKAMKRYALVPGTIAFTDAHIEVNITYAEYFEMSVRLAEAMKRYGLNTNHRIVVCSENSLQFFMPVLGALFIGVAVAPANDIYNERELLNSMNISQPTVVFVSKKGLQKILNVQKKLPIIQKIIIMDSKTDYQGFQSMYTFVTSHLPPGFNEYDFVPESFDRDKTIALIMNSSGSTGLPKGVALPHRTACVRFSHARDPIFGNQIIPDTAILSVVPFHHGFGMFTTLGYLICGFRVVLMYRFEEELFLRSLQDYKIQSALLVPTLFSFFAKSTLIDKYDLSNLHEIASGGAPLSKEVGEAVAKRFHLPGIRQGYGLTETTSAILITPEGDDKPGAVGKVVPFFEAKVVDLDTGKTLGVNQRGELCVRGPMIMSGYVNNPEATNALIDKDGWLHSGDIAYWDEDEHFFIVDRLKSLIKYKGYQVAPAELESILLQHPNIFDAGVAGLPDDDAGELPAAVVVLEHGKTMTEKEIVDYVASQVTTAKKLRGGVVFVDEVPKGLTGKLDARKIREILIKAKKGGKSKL

| effect on the luciferase activity (luciferase [2]) | SMILES | Ki (luciferase [1]) [µM] |
| --- | --- | --- |
| less than 0.5% | Nc1ncnc2c1ncn2[C@@H]1O[C@H](COP(=O)(O)O)[C@@H](O)[C@H]1O [AMP, adenosinel monophosphate] | 240 |
|  | O=C1CSC(c2nc3ccc(O)cc3s2)=N1 [oxyluciferin] | 0.23 |
